What was measured:
[1] = test system: APPs levels in the cerebrospinal fluid; test: Western blot of secreted APPs in CSF after i.p. injection; format: in vivo, guinea pig; settings: for Inhibition of the stimulatory effect of dexnorfenfluramine (1 mg/kg) on APPs in CSF: ritanserin 1 mg/kg or ketanserin 2 mg/kg, CSF one hour after injections; for APPs levels in the cerebrospinal fluid relative to saline-injected control: CSF one hour after injection, p<0.05
Excerpt: (§1) Guinea pigs are acclimatized to animal housing conditions for at least 70 days before receiving drug treatments or CSF withdrawal. CSF is withdrawn from the cisternae magna. Briefly, the dorsal cervical area and the occipital area of the skull is shaved and cleansed with alcohol after anesthesizing the guinea pigs with ketamine. A 33-gauge needle is used to penetrate the skin, the atlanto-occipital membrane and the dura mater in the region between the anterior of the first vertebra, and posterior of the cerebellum and the occipital protuberance. Upon penetration of the cistemae magna, a slight resistance in advancing the needle is felt; CSF is withdrawn via a PE10 polyethylene tubing attached to the needle at one end, and to a 20 ml syringe at the other. No more than 200 μL of CSF is withdrawn from each guinea pig per session or within a 24h interval. Occasionally, blood is present in the CSF; these samples are discarded and not used for analysis. The entire procedure for CSF withdrawal is completed within 5 minutes.
[…] Sterile normal saline is given control guinea pigs. To determine the time-course of APPs secretion, CSF is withdrawn at 1, 2, 4 or 8h after i.p. injections of either 1 mg/kg dexnorfenfluramine or saline. To determine the effect of chronic dexnorfenfluramine administration on secreted and brain APP levels, guinea pigs are injected with 2 mg/kg dexnorfenfluramine for 10 consecutive days. Withdrawal of CSF is performed 2h after dexnorfenfluramine on the tenth day, after which the guinea pigs are sacrificed and brains removed for analysis. Each guinea pig is repeatedly and randomly assigned on different days for either dose-response, for time-course, and for dexnorfenfluramine-5HT antagonist studies of APPs or Aβ secretion.
CSF (1-200 μL) is used for Western blot analysis of secreted APPs. For analysis of APP holoprotein, brain tissue from the cortex and hippocampus are collected in Eppendorf tubes and sonicated in 50 μL lysis buffer (60 mM Tris-HCl, 4%SDS, 20% glycerol, 1 mM dithiotreitol). The samples are boiled for 10 min to inhibit protease activity. The total amount of protein in each sample is measured by the bicinchoninic acid (Sigma) assay. Prior to gel electrophoresis, 1 μL of 5% bromphenol blue solution is added to each sample.
The amount of CSF or cell protein loaded for sodium dodecyl sulfate-polyacrylamide gel electrophoresis (10-20% SDS PAGE; Bio-Rad) is normalized for the amount of protein per sample. Proteins (equivalent to ˜100 μg cell protein/lane) are separated by electrophoresis, electroblotted onto polyvinylidene difluoride membranes (Immobilon-P, Millipore) and blocked in Tris-buffered saline with 0.15% Tween 20 (TBST) containing 5% powdered milk for 30 min. After 2×10 min rinses in TBST, the membranes are incubated in TBST containing an appropriate antibody. Monoclonal antibody 22C11 (from Boehringer-Mannheim) and APP-KPI (from Chemicon) were used to detect the N-terminus and KPI-domain of APP respectively; an antibody against glial fibrillary acidic […] (GFAP) is obtained from Chemicon.
After an overnight incubation, membranes are rinsed in TBST before being treated for lh with a peroxidase-linked secondary antibody. After several rinses in TBST, protein bands are visualized on Kodak X-AR films by an enhanced chemiluminescence method (Amersham). Optical densities of the protein bands are quantitated by laser scanning densitometry (LKB, Bromma, Sweden), and normalized to the densities of those bands generated under control conditions.
Data Analysis—Measurements of cellular and secreted proteins are normalized against those of control groups prepared in parallel and loaded onto the same blot. Analyses of variance (ANOVA) and t-tests for repeated measures are used to evaluate differences between groups (significance level, p=0.05), using drug treatments as the independent variable. Data are presented as means±SE, n=number of independent experiments.

[2] = test system: Aβ1-40 in the cerebrospinal fluid; test: Aβ40 ELISA of CSF after i.p. injection; format: in vivo, guinea pig
Excerpt: as §1, with “minutes. […]” for “minutes.”
(§2) Measurements of soluble Aβ1-40 or Aβ1-42 in the CSF are quantified using the Aβ40 or Aβ42 enzyme-linked immunosorbent assay (ELISA) kit (QBC, Hopkinton, Mass.) using the procedures recommended by the manufacturer. […]

Brain APP holoprotein = test: Western blot of brain APP holoprotein after chronic administration; format: in vivo, guinea pig; settings: 10 consecutive days i.p., 1 mg/kg, p>0.05
[3] = test system: Aβ1-42 in the cerebrospinal fluid; test: Aβ42 ELISA of CSF after i.p. injection; format: in vivo, guinea pig
Excerpt: as §1, with “minutes. […]” for “minutes.”
as §2

[4] = test system: GFAP-immunoreactive cultured astrocytes; test: APP overexpression in cultured astrocytes; format: cell-based, rat
Procedure: Astrocytes are isolated from cortices from postnatal rats by methods standard in the art. In brief, dissected cortices are dissociated by trypsinization and trituration through a flamepolished Pasteur pipette. Cells are plated onto poly-L-lysine coated 35- or 100 mm culture dishes at densities of about 10-25 cells/mm^2. The initial culture media, minimal essential medium (MEM, Gibco) containing 10% horse serum (BioWhittaker), are aspirated after 2-5 h after plating to remove unattached cells and debris, and replaced with MEM containing 7.5% fetal bovine serum (FBS, BioWhittaker). Half the media is replaced with MEM/7.5% FBS twice weekly. Cells are kept at 37° C. in a humidified 5% CO2/95% air incubator. Media are changed twice weekly. […]
The amount of media or cell protein loaded for sodium dodecyl sulfate-polyacrylamide gel electrophoresis (10-20% SDS PAGE; Bio-Rad) is normalized for the amount of protein per sample. […] Monoclonal antibodies 22C11 and GFAP (both from Boehringer Mannheim) are used to detect the N-terminus of APP and glial fibrillary acidic protein respectively; antisera R37 and R98 (gifts of Dr. F. Kametani, Tokyo Institute of Psychiatry) are used to detected the C-terminus and KPI motifs of APP respectively; antiserum C8 (gift of Dr. D. Selkoe, Women's Hospital, Harvard Medical School, Cambridge, Mass.) is used to detect the C-terminus of APP. […]

[5] = 0.5, 1, 2 or 4 mg/kg, single injection, p>0.05
[6] = 10 consecutive days i.p., 1 mg/kg

SMILES | Inhibition of the stimulatory effect of dexnorfenfluramine (1 mg/kg) on APPs in CSF [1] | Effect on levels of Aβ1-40 in the cerebrospinal fluid relative to control [2, 5] | Aβ1-40 levels in CSF relative to control [2, 6] | Brain APP holoprotein levels (Brain APP holoprotein) | Effect on levels of Aβ1-42 in the cerebrospinal fluid relative to control [3, 5] | Aβ1-42 levels in CSF relative to control [3, 6] | APPs levels in the cerebrospinal fluid relative to saline-injected control ([1]; 0.5 mg/kg i.p.) [fold] | APPs levels in the cerebrospinal fluid relative to saline-injected control ([1]; 1 mg/kg i.p.) [fold] | APPs levels in the CSF relative to control group ([1]; 1 mg/kg, 1h after injection) [fold] | APPs levels in the CSF relative to control group ([1]; 1 mg/kg, 2h after injection) [fold] | APPs levels in the CSF relative to control group ([1]; 1 mg/kg, 4h after injection) [fold] | APPs levels in the CSF relative to control group ([1]; 1 mg/kg, 8h after injection) [fold] | APPs levels in the cerebrospinal fluid relative to saline-injected control ([1]; 2 mg/kg i.p.) [fold] | APPs levels in the cerebrospinal fluid relative to saline-injected control ([1]; 4 mg/kg i.p.) [fold] | Increase of APPs levels in CSF relative to control [1, 6] [fold] | Effect on APP overexpression in cultured astrocytes [4]
Cc1nc2sccn2c(=O)c1CCN1CCC(=C(c2ccc(F)cc2)c2ccc(F)cc2)CC1 [ritanserin] | completely inhibited |  |  |  |  |  |  |  |  |  |  |  |  |  |  | 
O=C(c1ccc(F)cc1)C1CCN(CCn2c(=O)[nH]c3ccccc3c2=O)CC1 [ketanserin] | completely inhibited |  |  |  |  |  |  |  |  |  |  |  |  |  |  | 
CC(N)Cc1cccc(C(F)(F)F)c1 (single isomer, unassigned; (+)) [dexnorfenfluramine, (+)2-amino-1-(3-trifluoromethylphenyl) propane] |  | no significant effect | decreased | not altered | no significant effect | decreased | 1.25 | 1.45 | 1.5 | 2.0 | 1.3 | 1.5 | 1.6 | 1.4 | 1.6 | can inhibit APP overexpression

Reference: patent publication US20020173511A1, “Serotonergic compositions and methods for treatment of mild cognitive impairment” (priority 2000, published 2002)
